Values of other authors in PMC13167888 (Cancer Chemotherapy and Pharmacology, 2026).

Experiments:
[1] = bosutinib
BCRP = biological target: T1, BCRP (Homo sapiens, UniProt Q9UNQ0)
T1 sequence (Q9UNQ0 1-655): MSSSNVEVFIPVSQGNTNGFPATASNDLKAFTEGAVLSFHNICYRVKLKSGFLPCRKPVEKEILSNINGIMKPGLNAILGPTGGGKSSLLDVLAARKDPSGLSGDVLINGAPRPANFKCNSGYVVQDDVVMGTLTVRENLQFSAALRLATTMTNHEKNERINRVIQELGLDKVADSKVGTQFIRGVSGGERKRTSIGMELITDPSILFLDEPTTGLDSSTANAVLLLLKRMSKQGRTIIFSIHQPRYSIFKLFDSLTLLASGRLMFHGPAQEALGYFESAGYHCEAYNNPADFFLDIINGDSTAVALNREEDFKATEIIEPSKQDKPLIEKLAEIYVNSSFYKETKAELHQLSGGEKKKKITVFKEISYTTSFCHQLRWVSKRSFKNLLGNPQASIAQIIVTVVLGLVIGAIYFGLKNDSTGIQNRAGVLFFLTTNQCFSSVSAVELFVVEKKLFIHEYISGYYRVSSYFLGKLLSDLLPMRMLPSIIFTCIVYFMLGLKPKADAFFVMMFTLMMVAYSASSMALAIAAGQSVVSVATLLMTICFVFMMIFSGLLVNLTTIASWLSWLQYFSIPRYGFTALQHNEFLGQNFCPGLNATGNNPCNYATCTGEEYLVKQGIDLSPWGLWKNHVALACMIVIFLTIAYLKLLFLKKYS

SMILES	Plasma protein binding [1]	IC50 (BCRP) [µM]
COc1cc(Nc2c(C#N)cnc3cc(OCCCN4CCN(C)CC4)c(OC)cc23)c(Cl)cc1Cl [bosutinib]	94% [37]	–
CC(C)/N=c1\cc2n(-c3ccc(Cl)cc3)c3ccccc3nc-2cc1Nc1ccc(Cl)cc1 [clofazimine]	–	3.2
